Source: PubChem BioAssay AID256 (DTP/NCI, 2004)
Several values for one entry are separate records, joined by “and”; a condition that tells them apart may be missing. Identical values can stand only once. Toxic doses and inconclusive results are not listed.

System: CD2F1 mice, L1210 leukemia ip, survival T/C
Experiment: NCI In Vivo Anticancer Drug Screen. Data for tumor model L1210 Leukemia (intraperitoneal) in CD2F1 (CDF1) mice
Conditions: higher = longer survival
Method in brief: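 Activity against a transplanted murine tumor was judged by comparing the compound group with a vehicle group. The outcome in the treated animals was divided by that in the controls.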

[1] = endpoint: mean survival time, dose: 100.0 mg/kg/injection, schedule: Q04DX003 (ip), vehicle: saline with Tween-80
[2] = endpoint: mean survival time, dose: 200.0 mg/kg/injection, schedule: Q04DX003 (ip), vehicle: saline with Tween-80
[3] = endpoint: mean survival time, dose: 400.0 mg/kg/injection, schedule: Q04DX003 (ip), vehicle: saline with Tween-80
[4] = endpoint: mean survival time, dose: 50.0 mg/kg/injection, schedule: Q01DX009 (ip), vehicle: saline
[5] = endpoint: mean survival time, dose: 100.0 mg/kg/injection, schedule: Q01DX009 (ip), vehicle: saline
[6] = endpoint: mean survival time, dose: 100.0 mg/kg/injection, schedule: Q04DX003 (ip), vehicle: saline
[7] = endpoint: mean survival time, dose: 12.5 mg/kg/injection, schedule: Q01DX009 (ip), vehicle: saline with Tween-80
[8] = endpoint: mean survival time, dose: 50.0 mg/kg/injection, schedule: Q01DX009 (ip), vehicle: saline with Tween-80
[9] = endpoint: mean survival time, dose: 100.0 mg/kg/injection, schedule: Q01DX009 (ip), vehicle: saline with Tween-80
[10] = endpoint: mean survival time, dose: 200.0 mg/kg/injection, schedule: Q01DX009 (ip), vehicle: saline with Tween-80
[11] = endpoint: mean survival time, dose: 400.0 mg/kg/injection, schedule: Q01DX009 (ip), vehicle: saline with Tween-80
[12] = endpoint: mean survival time, dose: 100.0 mg/kg/injection, schedule: Q01DX001 (ip), vehicle: saline with Tween-80
[13] = endpoint: mean survival time, dose: 200.0 mg/kg/injection, schedule: Q01DX001 (ip), vehicle: saline with Tween-80
[14] = endpoint: mean survival time, dose: 400.0 mg/kg/injection, schedule: Q01DX001 (ip), vehicle: saline with Tween-80
[15] = endpoint: mean survival time, dose: 50.0 mg/kg/injection, schedule: Q01DX001 (ip), vehicle: saline with Tween-80

## CN1CCCN(C)C1c1cc(Br)ccc1O
endpoint: mean survival time, dose: 6.25 mg/kg/injection, schedule: Q01DX009 (ip), vehicle: saline sonified
  T/C: 100 % of control
endpoint: mean survival time, dose: 12.5 mg/kg/injection, schedule: Q01DX009 (ip), vehicle: saline sonified
  T/C: 104 % of control
endpoint: mean survival time, dose: 25.0 mg/kg/injection, schedule: Q01DX009 (ip), vehicle: saline sonified
  T/C: 94 % of control
[1]
  T/C: 101 % of control
[2]
  T/C: 95 % of control
[3]
  T/C: 95 % of control

## CCOC(=O)Nc1cc2c(c(N)n1)N=C(CN(C)c1ccc(OC)cc1)CN2
endpoint: mean survival time, dose: 0.78 mg/kg/injection, schedule: Q01DX009 (ip), vehicle: Klucel (hydroxypropylcellulose) (HPC)
  T/C: 118 % of control

## ONc1ccccn1
endpoint: mean survival time, dose: 25.0 mg/kg/injection, schedule: Q01DX009 (ip), vehicle: saline
  T/C: 101 % of control
[4]
  T/C: 96 % of control
endpoint: mean survival time, dose: 50.0 mg/kg/injection, schedule: Q04DX003 (ip), vehicle: saline
  T/C: 98 % of control
[5]
  T/C: 95 % of control
[6]
  T/C: 98 % of control

## NCCCNCCCCNCCCN
endpoint: median survival time, dose: 24.75 mg/kg/injection, schedule: Q04DX003 (ip), vehicle: saline
  T/C: 101 % of control
endpoint: median survival time, dose: 49.5 mg/kg/injection, schedule: Q04DX003 (ip), vehicle: saline
  T/C: 107 % of control

## COc1cc2c(cc1OC)C1CCN3C(=O)CCC3[N+]1(C)CC2 (centres undefined)
[4]
  T/C: 93 % of control
[5]
  T/C: 98 % of control
[6]
  T/C: 98 % of control
endpoint: mean survival time, dose: 200.0 mg/kg/injection, schedule: Q04DX003 (ip), vehicle: saline
  T/C: 96 % of control

## CC(=O)NCC(O)(C1CC1)C1CC1
endpoint: mean survival time, dose: 100.0 mg/kg/injection, schedule: Q04DX002 (ip), vehicle: saline
  T/C: 102 % of control
endpoint: mean survival time, dose: 200.0 mg/kg/injection, schedule: Q04DX002 (ip), vehicle: saline
  T/C: 98 % of control
endpoint: mean survival time, dose: 400.0 mg/kg/injection, schedule: Q04DX002 (ip), vehicle: saline
  T/C: 94 % of control

## N[C@@H]1CCCC[C@H]1N.O=C([O-])C(=O)[O-].[Pt+4]
endpoint: mean survival time, dose: 0.78 mg/kg/injection, schedule: Q04DX003 (ip), vehicle: saline
  T/C: 120 % of control

## Clc1cc(Cl)c(CBr)cc1CBr
[7]
  T/C: 91 % of control
[2]
  T/C: 90 % of control

## O=C1C=CC(=O)c2c(Cl)ccc(O)c21
endpoint: mean survival time, dose: 3.13 mg/kg/injection, schedule: Q04DX002 (ip), vehicle: other
  T/C: 102 % of control
endpoint: mean survival time, dose: 6.25 mg/kg/injection, schedule: Q04DX002 (ip), vehicle: other
  T/C: 102 % of control
endpoint: mean survival time, dose: 12.5 mg/kg/injection, schedule: Q04DX002 (ip), vehicle: other
  T/C: 96 % of control and 102 % of control

## Cc1ccc(S(=O)(=O)Nc2ccccc2)c(C(O)(c2ccccc2)c2ccccc2)c1
[1]
  T/C: 95 % of control
[2]
  T/C: 106 % of control
[3]
  T/C: 95 % of control

## Oc1cc2ccccc2c(-c2c(O)c(O)cc3ccccc23)c1O
[7]
  T/C: 103 % of control
endpoint: mean survival time, dose: 25.0 mg/kg/injection, schedule: Q01DX009 (ip), vehicle: saline with Tween-80
  T/C: 100 % of control and 103 % of control
[8]
  T/C: 103 % of control and 105 % of control
[9]
  T/C: 100 % of control and 109 % of control
[10]
  T/C: 96 % of control

## O=C1NC(=O)C(c2ccccc2)(c2ccc(O)cc2)N1 (centres undefined)
[9]
  T/C: 105 % of control
endpoint: mean survival time, dose: 100.0 mg/kg/injection, schedule: Q04DX003 (ip), vehicle: saline sonified
  T/C: 95 % of control
[10]
  T/C: 95 % of control
endpoint: mean survival time, dose: 200.0 mg/kg/injection, schedule: Q04DX003 (ip), vehicle: saline sonified
  T/C: 93 % of control
[11]
  T/C: 95 % of control
endpoint: mean survival time, dose: 400.0 mg/kg/injection, schedule: Q04DX003 (ip), vehicle: saline sonified
  T/C: 93 % of control

## O=C(O)CCCCCCCCCO
[12]
  T/C: 91 % of control
[13]
  T/C: 87 % of control
[14]
  T/C: 86 % of control

## CC(=O)NC1C(OC(C)=O)OC(COC(c2ccccc2)(c2ccccc2)c2ccccc2)C(O)C1OC(C)=O (centres undefined)
endpoint: mean survival time, dose: 12.5 mg/kg/injection, schedule: Q04DX002 (ip), vehicle: saline with Tween-80
  T/C: 93 % of control
endpoint: mean survival time, dose: 12.5 mg/kg/injection, schedule: Q04DX003 (ip), vehicle: saline with Tween-80
  T/C: 103 % of control
endpoint: mean survival time, dose: 25.0 mg/kg/injection, schedule: Q04DX003 (ip), vehicle: saline with Tween-80
  T/C: 95 % of control
[15]
  T/C: 88 % of control
endpoint: mean survival time, dose: 50.0 mg/kg/injection, schedule: Q04DX002 (ip), vehicle: saline with Tween-80
  T/C: 91 % of control
endpoint: mean survival time, dose: 50.0 mg/kg/injection, schedule: Q04DX003 (ip), vehicle: saline with Tween-80
  T/C: 87 % of control
[12]
  T/C: 87 % of control
endpoint: mean survival time, dose: 100.0 mg/kg/injection, schedule: Q04DX002 (ip), vehicle: saline with Tween-80
  T/C: 88 % of control
[1]
  T/C: 93 % of control
[13]
  T/C: 88 % of control
[14]
  T/C: 90 % of control

## O=C(Nc1ccc2c(c1)OCO2)O/N=C1\C(=O)Nc2ccccc21
[1]
  T/C: 100 % of control
[2]
  T/C: 86 % of control

## CC#CC(=O)OC
[8]
  T/C: 104 % of control
[9]
  T/C: 104 % of control
[10]
  T/C: 96 % of control

## OC1(c2ccccc2)c2cc(-c3ccccc3)c(-c3ccccc3)cc2C(c2ccccc2)(c2ccccc2)C1(O)c1ccccc1 (centres undefined)
[15]
  T/C: 96 % of control
[12]
  T/C: 96 % of control
[13]
  T/C: 96 % of control

## O=C(Cn1cc[n+](CC(=O)c2ccccc2)c1)c1ccccc1
[1]
  T/C: 109 % of control

## CCOC(=O)CN(c1c(C)cc([N+](=O)[O-])c2ccccc12)S(=O)(=O)c1ccccc1
[12]
  T/C: 97 % of control
[13]
  T/C: 94 % of control
[14]
  T/C: 96 % of control

## CCC(=O)OCCn1c2ccccc2c2c(C)c3cnccc3c(C)c21
[9]
  T/C: 110 % of control
[1]
  T/C: 102 % of control
[2]
  T/C: 107 % of control
[11]
  T/C: 154 % of control
[3]
  T/C: 123 % of control

## O=C(NC1c2ccccc2-c2ccccc21)C(F)(F)F
[9]
  T/C: 96 % of control
[1]
  T/C: 99 % of control
[10]
  T/C: 97 % of control
[2]
  T/C: 99 % of control
[11]
  T/C: 100 % of control
[3]
  T/C: 97 % of control

## Nc1cccc2cc3ccccc3[n+]([O-])c12
[1]
  T/C: 104 % of control
[2]
  T/C: 108 % of control
[3]
  T/C: 95 % of control

## COc1ccc(OCC(O)CO)cc1 (centres undefined)
endpoint: mean survival time, dose: 100.0 mg/kg/injection, schedule: Q01DX001 (ip), vehicle: saline
  T/C: 102 % of control
endpoint: mean survival time, dose: 200.0 mg/kg/injection, schedule: Q01DX001 (ip), vehicle: saline
  T/C: 102 % of control
endpoint: mean survival time, dose: 400.0 mg/kg/injection, schedule: Q01DX001 (ip), vehicle: saline
  T/C: 97 % of control

## O=S(=O)(Nc1ccc2c3c(cccc13)CC2)c1ccccc1
[1]
  T/C: 96 % of control
[2]
  T/C: 96 % of control
[3]
  T/C: 98 % of control

## CCOC(=O)C(CCC#N)(CCC#N)C(=O)OCC
[9]
  T/C: 91 % of control
[1]
  T/C: 96 % of control
[10]
  T/C: 94 % of control
[2]
  T/C: 102 % of control
[11]
  T/C: 94 % of control
[3]
  T/C: 104 % of control

## c1ccc(C2Nc3ccccc3NC2c2ccccc2)cc1 (centres undefined)
[12]
  T/C: 95 % of control
[13]
  T/C: 97 % of control
[14]
  T/C: 103 % of control

## Cl/C(=N\Nc1ccccc1)c1ccccc1
endpoint: mean survival time, dose: 12.5 mg/kg/injection, schedule: Q01DX009 (ip), vehicle: Klucel (hydroxypropylcellulose) (HPC)
  T/C: 102 % of control
endpoint: mean survival time, dose: 25.0 mg/kg/injection, schedule: Q01DX009 (ip), vehicle: Klucel (hydroxypropylcellulose) (HPC)
  T/C: 98 % of control
endpoint: mean survival time, dose: 50.0 mg/kg/injection, schedule: Q01DX009 (ip), vehicle: Klucel (hydroxypropylcellulose) (HPC)
  T/C: 88 % of control
